From patent US20050020544A1, “Bicyclic CB2 cannabinoid receptor ligands” (priority 2002, published 2005)
pIC50: −log10 of the molar value. Like-named read-outs stand apart in the source and are kept apart here.

Tests used:
[1] = tested on: IL-2 secretion from activated Jurkat cells; assay: Inhibition of IL-2 in PMA/A23187 activated T cells (ELISA); assay type: cell-based, human; details: for reversal of IL-2 secretion inhibiting activity by antagonists: 0.5-5 μM of CB1 antagonist SR141716A or CB2 antagonist SR144528; for pIC50: 24 hours after stimulation, read-out: calculated IC50 IL-2 secretion
Method: The technique used to quantify the amount of a given protein in a liquid sample, either tissue culture supernatant or body fluid, is based on Enzyme Linked ImmunoSorbent Assay (ELISA) methodology. Either commercially available or established in house, the assay is based on the capture of the protein of interest by specific antibodies bound to the bottom of an ELISA plate well. […] Again the unbound material is washed away, the samples are then incubated with the appropriate substrate yielding a calorimetric reaction. The reaction is stopped and reading is performed in a spectrophotometer at the appropriate wavelength. Samples are tested at least in duplicate and the appropriate standard curve, consisting of serial dilutions of the recombinant target protein, is incorporated on each plate. Concentration of the protein in the sample is calculated from the standard curve.
Jurkat cells (human acute lymphoma T-cell line; ATCC # TIB-152) are grown in RPMI 1640 medium with 2 mM L-glutamine adjusted to contain 1.5 g/L sodium bicarbonate, 4.5 g/L glucose, 10 mM HEPES, 1.0 mM sodium pyruvate, and 10% heat inactivated fetal bovine serum. Cells are grown in tissue culture flasks and seeded at appropriate density into 24 wells tissue culture plates. 2×10^6 cells in one milliliter are stimulated using 10 ng/ml of PMA (Sigma) and 1 μM A23187 calcium ionophore (Sigma). […] The controls and test compounds are added at indicated concentrations one hour before stimulation. Supernatant is collected 24 hours after stimulation and the levels of the inflammatory agent under study are measured in an ELISA assay as previously described. Inhibition is calculated versus vehicle treated cells.
The activation of the T cells is performed as previously described. The levels of IL-2 are measured in an ELISA assay as previously described. Inhibition is calculated versus vehicle treated cells.

[2] = tested on: Male Sprague Dawley rats; assay: Inflammatory pain: carrageenan paw edema in rats, thermal and mechanical stimuli; assay type: in vivo, rat; details: for ΔForce (tactile stimulus) / ΔLT (thermal stimulus): three hours
Summary of the method: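 Male Sprague Dawley rats (~200 g) with carrageenan-inflamed paw, tested before and 3 h after injection. Thermal withdrawal latency measured by Hargreaves plantar test at intensity 50, and mechanical threshold by dynamic plantar aesthesiometer. Values are inflamed minus non-inflamed paw differences at 0 and 3 h (ΔLT, ΔForce).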

[3] = tested on: PGE2 secretion from activated RAW 264.7 macrophages; assay: Inhibition of PGE2 in LPS activated macrophages (ELISA); assay type: cell-based, mouse; details: 4 hours after activation, doses 1 μM to 20 μM
Text: The technique used to quantify the amount of a given protein in a liquid sample, either tissue culture supernatant or body fluid, is based on Enzyme Linked ImmunoSorbent Assay (ELISA) methodology. Either commercially available or established in house, the assay is based on the capture of the protein of interest by specific antibodies bound to the bottom of an ELISA plate well. Unbound material is washed away, the captured protein is then exposed to a secondary antibody generally labeled with horseradish peroxidase (HRP) or alkaline phosphatase (ALP). Again the unbound material is washed away, the samples are then incubated with the appropriate substrate yielding a calorimetric reaction. The reaction is stopped and reading is performed in a spectrophotometer at the appropriate wavelength. Samples are tested at least in duplicate and the appropriate standard curve, consisting of serial dilutions of the recombinant target protein, is incorporated on each plate. Concentration of the protein in the sample is calculated from the standard curve.
RAW 264.7 macrophages, a mouse cell line (ATCC # TIB-71), were grown in Dulbecco's modified Eagle's medium (DMEM) with 4 mM L-glutamine adjusted to contain 1.5 g/L sodium bicarbonate, 4.5 g/L glucose, and 10% heat inactivated fetal bovine serum. Cells were grown in tissue culture flasks and seeded at appropriate density into 24 wells tissue culture plates. 0.5×10^6 Raw cells in one milliliter were stimulated with 2 μg/ml Lipopolysaccharide E. coli 055:B5 (DIFCO Laboratories). The mouse macrophages were pre-treated for one hour with controls or 10 μM of bicyclic CB2 ligands and later on activated with LPS. Dexamethasone was used as a positive control at 50 nM. Supernatant was collected 4 hours (for PGE2) and 24 hours (for IL-1β and TNF-α) after activation, and the levels of the inflammatory agent under study were determined by ELISA, as previously described. Inhibition was calculated versus vehicle treated cells.
The activation of the macrophages is performed as previously described. The levels of PGE2 are measured in an ELISA assay as previously described. Inhibition is calculated versus vehicle treated cells. […] Results are depicted in FIG. 2B.

[4] = biological target: human CB2 receptor (Homo sapiens, UniProt P34972); assay: Adenylylcyclase assay: forskolin-activated cAMP in CB2 transfected HEK-293 cells; assay type: cell-based; details: for inhibition at 1 µM: HEK293, read-out: % inhibition at 1 μM
Method: Cannabinoids and derivatives bind to G-protein-coupled CB1 and CB2 receptors and exert their activity via the inhibition of adenylylcyclase activity. An adenylylcyclase assay forms a basis for the functional analysis of the compounds by determining their capacity to inhibit or promote forskolin-activated cAMP production. The assay is carried out according to Chin et al. (Chin, C. N. et al., J. Neurochem. 70: 366-73, 1998). Briefly, HEK-293 human kidney cells (ATCC#CRL-1573) stably transfected with either the human CB1 or CB2 receptor (cDNA) were grown in DMEM supplemented with 10% fetal calf serum, 1% Penicillin-Streptomycin and 2 mM L-glutamine. Cells were seeded in 24 wells plate at 5×10^4 cells/well and incubated for 48 hours. Medium was then removed and the adherent cells were washed with PBS. Two hundred μl of serum free medium supplemented with 0.2 mM Ro 20-1724, 0.25% BSA, and 20 mM HEPES was then added to each well. The cells were then activated with 1 μM forskolin in presence of the bicyclic test compounds in concentrations ranging from 10 pM up to 1 μM. The activated cells were then incubated at 37° C. for 20 minutes and the reaction terminated with 1.2 M HCl to a final concentration of 0.1 M. Cells were lyzed by freeze and thaw and the lysate was neutralized with 2 M HEPES, pH 7.5. cAMP was measured in 50 μl aliquots using the [^3H]-cAMP assay system (Amersham).
This experiment was first performed on CB2 receptor transfected cells.

[5] = CB2 receptor transfected HEK-293, 1 μM forskolin
[6] = CB2 receptor transfected HEK-293, 1 μM forskolin, read-out: IC50 inhibition of cAMP level

Sequence of human CB2 receptor (P34972 whole entry): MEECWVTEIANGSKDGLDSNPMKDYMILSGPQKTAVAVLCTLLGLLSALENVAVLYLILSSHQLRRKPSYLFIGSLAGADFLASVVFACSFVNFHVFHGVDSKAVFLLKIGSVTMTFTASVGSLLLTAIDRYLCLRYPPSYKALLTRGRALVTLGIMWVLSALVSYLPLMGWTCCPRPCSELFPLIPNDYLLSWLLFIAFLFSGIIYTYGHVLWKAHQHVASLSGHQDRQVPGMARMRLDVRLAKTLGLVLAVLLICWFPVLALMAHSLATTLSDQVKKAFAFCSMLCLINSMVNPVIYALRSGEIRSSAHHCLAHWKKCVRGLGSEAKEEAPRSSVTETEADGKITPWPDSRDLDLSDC

| Structure (SMILES) | reversal of IL-2 secretion inhibiting activity by antagonists [1] | pIC50 ([1]; Homo sapiens, Jurkat) | pIC50 ([3]; Mus musculus, RAW264.7) | inhibition at 1 µM [4, 5] | pIC50 [4, 6] | other results |
| --- | --- | --- | --- | --- | --- | --- |
| CCCCC(C)(C)c1cc(O)c(C2CC(=O)C3CC2C3(C)C)c(O)c1 (single isomer, unassigned; (-)) [Compound L, (−)-4-[4(1,1-Dimethyl-pentyl)-2,6-dihydroxy-phenyl]-6,6-dimethyl-bicyclo[3.1.1]heptan-2-one] | not reversed by any of these antagonists | 5.10 | 5.15 | 33% | – | ΔForce (tactile stimulus) ([2]; 2 mg/kg i.p.): 11 g |
| CCCCCCC(C)(C)c1cc(O)c([C@H]2CC(=O)[C@H]3C[C@@H]2C3(C)C)c(OC(=O)CCC(=O)O)c1 [Compound R, (−)-4-{4-[1,1-Dimethyl-heptyl]-2-succinate-6-hydroxy-phenyl}-6,6-dimethyl-bicyclo[3.1.1]heptan-2-one] | – | 5.05 | 5.05 | 64% | 9.33 | reversal of analgesic activity against thermal and mechanical stimuli by antagonists ([2]; 5 mg/kg i.p. SR141716A or SR144528, 15 minutes before carrageenan and compound): not reversed by any of the antagonists; ΔForce (tactile stimulus) ([2]; 10 mg/kg i.p.): 4 g; ΔLT (thermal stimulus) ([2]; 10 mg/kg i.p.): 0 s |
| CCCCCCC(C)(C)c1cc(OC)c(C2C=C(CO)C3CC2C3(C)C)c(OC)c1 (single isomer, unassigned; (+)) [HU-308, (+) {4-[4-(1,1-dimethylheptyl)-2,6-dimethoxy-phenyl]-6,6-dimethyl-bicyclo[3.1.1]hept-2-en-2-yl}-methanol, reference compound] | – | – | – | – | – | effect on IL-2 secretion ([1]; doses of up to 10 μM): minimal effect |
| CCCCC(C)(C)c1cc(O)c(C2CC(=O)C3CC2C3(C)C)c(OC(=O)CCC(=O)O)c1 (single isomer, unassigned; (-)) [Compound Y, (−)-4-{4-[1,1-Dimethyl-pentyl]-2-succinate-6-hydroxy-phenyl}-6,6-dimethyl-bicyclo[3.1.1]heptan-2-one] | – | – | – | – | 8.95 | pIC50 [1]: 5.05; pIC50 [3]: 5.15; % inhibition at 1 μM [4, 5]: 60% |
| CCCCCCC(C)(C)c1cc(O)c(C2CC(=O)C3CC2C3(C)C)c(O)c1 (single isomer, unassigned; (-)) [Compound A, (−)-4-[4-(1,1-Dimethyl-heptyl)2,6-dihydroxy-phenyl]-6,6-dimethyl-bicyclo[3.1.1)heptan-2-one] | not reversed by any of these antagonists | 5.52 | 5.05 | 63% | – | ΔForce (tactile stimulus) ([2]; 8 mg/kg i.p.): 2 g; ΔLT (thermal stimulus) ([2]; 8 mg/kg i.p.): 1.5 s; pIC50 [4]: 9.62 |
